Experimental findings from PubChem BioAssay (NCI) are described below.

Among the test systems are SW-620 colon; MDA-N; SR leukemia; PC-3 prostate; MDA-MB-435; IGROV1 ovarian; KM12 colon; NCI-H460 lung; TK-10 renal; NCI/ADR-RES ovarian; UO-31 renal; SNB-19 CNS; T-47D breast; U251 CNS; BT-549 breast; CAKI-1 renal; MOLT-4 leukemia; SF-539 CNS; NCI-H226 lung; HOP-92 NSCLC.
Assay in all cases: DTP human tumour cell line panel, 48 h

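Method: 48-hour compound exposure of cells in 96-well plates, five concentrations, linear interpolation of endpoints. At the TGI there is no net growth.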 Bounds are passed on as bounds.

For the compound `Nc1n[nH]c2c(C(=O)Nc3ccc(Cl)cc3)c(N)n(N)c(=O)c12`, the TGI in the experiment on SW-620 colon, with MDA-N, in the experiment with SR leukemia, in the experiment on PC-3 prostate, with MDA-MB-435 and in the experiment on IGROV1 ovarian was above 100 µM each time. For the same compound, the TGI with KM12 colon, in the experiment on NCI-H460 lung, in the experiment with TK-10 renal, in the experiment with NCI/ADR-RES ovarian, in the experiment with UO-31 renal and in the experiment with SNB-19 CNS was above 100 µM throughout. Further, the TGI with T-47D breast, in the experiment with U251 CNS, in the experiment on BT-549 breast, in the experiment on CAKI-1 renal, in the experiment on MOLT-4 leukemia and in the experiment on SF-539 CNS was above 100 µM throughout. Besides, the TGI – broadly, the concentration giving total growth inhibition – in the experiment on NCI-H226 lung was above 100 µM.
On to `O=C(Cn1c2c(c3ccccc31)CCCC2)N1CCCCC1`, for which the TGI in the experiment on HOP-92 NSCLC, in the experiment on SW-620 colon, with MDA-N, in the experiment with SR leukemia, in the experiment with PC-3 prostate and with MDA-MB-435 was above 100 µM each time. Also, the TGI in the experiment with IGROV1 ovarian, in the experiment on NCI-H460 lung, in the experiment on TK-10 renal, in the experiment on NCI/ADR-RES ovarian, in the experiment with UO-31 renal and in the experiment with SNB-19 CNS was above 100 µM in each case. Besides, the TGI with BT-549 breast, in the experiment with CAKI-1 renal, in the experiment on MOLT-4 leukemia and with SF-539 CNS was above 100 µM throughout.
`COc1ccc(CCc2ccc3c(c2)OCO3)cc1`: the TGI is above 100 µM in the experiment with HOP-92 NSCLC; above 100 µM in the experiment on SW-620 colon; above 100 µM with MDA-N; 45.4 µM in the experiment with SR leukemia; above 100 µM in the experiment with PC-3 prostate; 42.6 µM in the experiment on MDA-MB-435. Besides, the TGI in the experiment with IGROV1 ovarian, in the experiment on KM12 colon, in the experiment on NCI-H460 lung, with TK-10 renal, in the experiment on NCI/ADR-RES ovarian and in the experiment with SNB-19 CNS was above 100 µM in each case. Further, the TGI with U251 CNS, in the experiment on BT-549 breast, in the experiment with CAKI-1 renal, with MOLT-4 leukemia, in the experiment with SF-539 CNS and in the experiment with NCI-H226 lung was above 100 µM each time.
As to `CC1CC(=NC2CCCCC2)Nc2ccccc2N1Cc1ccccc1` (stereo unspecified), the TGI in the experiment with SW-620 colon was 23 µM; in the experiment with MDA-N, 12.5 µM; with SR leukemia, above 100 µM; with PC-3 prostate it was 18.3 µM; in the experiment with MDA-MB-435, 13.4 µM; in the experiment with IGROV1 ovarian it was 8.61 µM. Moreover, the TGI stood at 17 µM in the experiment on KM12 colon; 14.5 µM in the experiment with NCI-H460 lung; 25.2 µM in the experiment with TK-10 renal; 19.9 µM in the experiment on NCI/ADR-RES ovarian; 13.3 µM with UO-31 renal; 24.2 µM with SNB-19 CNS. In addition, the TGI stood at 20.7 µM with T-47D breast; 19.9 µM in the experiment with U251 CNS; 18.7 µM with BT-549 breast; 19.2 µM in the experiment on CAKI-1 renal; 30 µM in the experiment on MOLT-4 leukemia; 22.5 µM in the experiment with SF-539 CNS. The compound further yielded a TGI in the experiment on NCI-H226 lung of 27.8 µM.
Regarding `CC(=Nc1cccc(Cl)c1)c1ccncc1`, the TGI in the experiment with HOP-92 NSCLC, in the experiment with SW-620 colon, with MDA-N, in the experiment on PC-3 prostate, in the experiment with MDA-MB-435 and in the experiment on IGROV1 ovarian was above 100 µM each time. In addition, the TGI in the experiment on KM12 colon, with NCI-H460 lung, with TK-10 renal, with NCI/ADR-RES ovarian, in the experiment on UO-31 renal and with SNB-19 CNS was above 100 µM in each case. Further, the TGI in the experiment with T-47D breast, in the experiment on U251 CNS, in the experiment on BT-549 breast, in the experiment with CAKI-1 renal, in the experiment with MOLT-4 leukemia and with SF-539 CNS was above 100 µM in each case. This compound also showed a TGI with NCI-H226 lung above 100 µM.
Turning to `CC(C)(C)n1c(=O)n(-c2ccccc2)n(C(C)(C)C)c1=O`, the TGI in the experiment on HOP-92 NSCLC, with SW-620 colon, in the experiment with MDA-N, with SR leukemia, with PC-3 prostate and in the experiment with IGROV1 ovarian was above 100 µM each time. For the same compound, the concentration for total growth inhibition (TGI) in the experiment with KM12 colon, with NCI-H460 lung, with TK-10 renal, in the experiment with NCI/ADR-RES ovarian, in the experiment on UO-31 renal and with SNB-19 CNS was above 100 µM each time. Moreover, the concentration for total growth inhibition (TGI) in the experiment on U251 CNS, in the experiment on BT-549 breast, in the experiment on CAKI-1 renal, with MOLT-4 leukemia, with SF-539 CNS and in the experiment with NCI-H226 lung was above 100 µM each time.
As for `CN(/N=C/C=N/N(C)C1=NCCCN1)C1=NCCCN1`, the TGI in the experiment on HOP-92 NSCLC, in the experiment with SW-620 colon, with MDA-N, in the experiment on SR leukemia, with PC-3 prostate and with MDA-MB-435 was above 100 µM in each case. For the same compound, the TGI in the experiment on IGROV1 ovarian, in the experiment on KM12 colon, in the experiment with NCI-H460 lung, with TK-10 renal, in the experiment on NCI/ADR-RES ovarian and in the experiment on UO-31 renal was above 100 µM in each case. The TGI with SNB-19 CNS, in the experiment on U251 CNS, in the experiment on BT-549 breast, in the experiment on CAKI-1 renal, in the experiment with MOLT-4 leukemia and with SF-539 CNS was above 100 µM each time. For the same compound, the TGI with NCI-H226 lung is above 100 µM.
As for `CC(C)OC(=O)C1(C(C)C)CCc2ccc(C(=O)CCC(=O)O)cc21` (stereo unspecified), the TGI in the experiment on SW-620 colon, in the experiment on MDA-N, with SR leukemia, with PC-3 prostate, in the experiment with IGROV1 ovarian and in the experiment on KM12 colon was above 100 µM each time. Further, the concentration for total growth inhibition (TGI) in the experiment with NCI-H460 lung, in the experiment with TK-10 renal, with NCI/ADR-RES ovarian, in the experiment on UO-31 renal, in the experiment on SNB-19 CNS and in the experiment on T-47D breast was above 100 µM each time. In addition, the TGI with U251 CNS, in the experiment with BT-549 breast, in the experiment on CAKI-1 renal, in the experiment with MOLT-4 leukemia, with SF-539 CNS and in the experiment with NCI-H226 lung was above 100 µM each time.
